Results from patent publication US20050009005A1, “Methods of using quantitative lipid metabolome data” (Lipomics Technologies, Inc., priority 2001, published 2005).
Like-named read-outs stand apart in the source and are kept apart here.

Tested on: de novo fatty acid synthesis
Settings: Plasma

CN(CCOc1ccc(CC2SC(=O)NC2=O)cc1)c1ccccn1 (centres unmarked) [rosiglitazone]
14:0 (CE, mean): 0.6 percentage of total fatty acids within each lipid class | 16:0 (CE, mean): 3.7 percentage of total fatty acids within each lipid class | 16:1n7 (CE, mean): 6.5 percentage of total fatty acids within each lipid class | 18:0 (CE, mean): 0.2 percentage of total fatty acids within each lipid class | 18:1n7 (CE, mean): 0.7 percentage of total fatty acids within each lipid class | 18:1n9 (CE, mean): 6.1 percentage of total fatty acids within each lipid class | Saturates (CE, mean): 4.9 percentage of total fatty acids within each lipid class | Total (CE, mean): 100.0 percentage of total fatty acids within each lipid class | Total n7 (CE, mean): 7.3 percentage of total fatty acids within each lipid class | Total n9 (CE, mean): 6.6 percentage of total fatty acids within each lipid class | 14:0 (CE, mean of treated mice): 16.8 nanomoles per gram | 16:0 (CE, mean of treated mice): 113.0 nanomoles per gram | 16:1n7 (CE, mean of treated mice): 200.8 nanomoles per gram | 18:0 (CE, mean of treated mice): 7.1 nanomoles per gram | 18:1n7 (CE, mean of treated mice): 22.7 nanomoles per gram | 18:1n9 (CE, mean of treated mice): 189.1 nanomoles per gram | Saturates (CE, mean of treated mice): 148.8 nanomoles per gram | Total n7 (CE, mean of treated mice): 223.4 nanomoles per gram | Total n9 (CE, mean of treated mice): 202.2 nanomoles per gram | Total nMole of (CE, mean of treated mice): 3058.7 nanomoles per gram | 14:0 (FFA, mean): 3.3 percentage of total fatty acids within each lipid class | 16:0 (FFA, mean): 30.9 percentage of total fatty acids within each lipid class | 16:1n7 (FFA, mean): 8.3 percentage of total fatty acids within each lipid class | 18:0 (FFA, mean): 8.1 percentage of total fatty acids within each lipid class | 18:1n7 (FFA, mean): 3.2 percentage of total fatty acids within each lipid class | 18:1n9 (FFA, mean): 18.4 percentage of total fatty acids within each lipid class | Saturates (FFA, mean): 43.8 percentage of total fatty acids within each lipid class | Total (FFA, mean): 100.0 percentage of total fatty acids within each lipid class | Total n9 (FFA, mean): 18.9 percentage of total fatty acids within each lipid class | 14:0 (FFA, mean of treated mice): 15.9 nanomoles per gram | 16:0 (FFA, mean of treated mice): 148.4 nanomoles per gram | 16:1n7 (FFA, mean of treated mice): 41.4 nanomoles per gram | 18:0 (FFA, mean of treated mice): 37.3 nanomoles per gram | 18:1n7 (FFA, mean of treated mice): 15.2 nanomoles per gram | 18:1n9 (FFA, mean of treated mice): 90.2 nanomoles per gram | Saturates (FFA, mean of treated mice): 208.8 nanomoles per gram | Total n7 (FFA, mean of treated mice): 56.7 nanomoles per gram | Total n9 (FFA, mean of treated mice): 92.7 nanomoles per gram | Total nMole of (FFA, mean of treated mice): 478.4 nanomoles per gram | 14:0 (PC, mean): 0.1 percentage of total fatty acids within each lipid class | 16:0 (PC, mean): 30.8 percentage of total fatty acids within each lipid class | 16:1n7 (PC, mean): 0.8 percentage of total fatty acids within each lipid class | 18:0 (PC, mean): 13.0 percentage of total fatty acids within each lipid class | 18:1n7 (PC, mean): 4.1 percentage of total fatty acids within each lipid class | 18:1n9 (PC, mean): 9.4 percentage of total fatty acids within each lipid class | Saturates (PC, mean): 44.6 percentage of total fatty acids within each lipid class | Total (PC, mean): 100.0 percentage of total fatty acids within each lipid class | Total n7 (PC, mean): 4.9 percentage of total fatty acids within each lipid class | Total n9 (PC, mean): 9.9 percentage of total fatty acids within each lipid class | 14:0 (PC, mean of treated mice): 5.7 nanomoles per gram | 16:0 (PC, mean of treated mice): 1246.9 nanomoles per gram | 16:1n7 (PC, mean of treated mice): 34.2 nanomoles per gram | 18:0 (PC, mean of treated mice): 528.9 nanomoles per gram | 18:1n7 (PC, mean of treated mice): 164.8 nanomoles per gram | 18:1n9 (PC, mean of treated mice): 383.4 nanomoles per gram | Saturates (PC, mean of treated mice): 1804.9 nanomoles per gram | Total n7 (PC, mean of treated mice): 199.0 nanomoles per gram | Total n9 (PC, mean of treated mice): 405.1 nanomoles per gram | Total nMole of (PC, mean of treated mice): 2027.9 nanomoles per gram | 14:0 (PL, mean): 0.2 percentage of total fatty acids within each lipid class | 16:0 (PL, mean): 30.9 percentage of total fatty acids within each lipid class | 16:1n7 (PL, mean): 0.9 percentage of total fatty acids within each lipid class | 18:0 (PL, mean): 11.9 percentage of total fatty acids within each lipid class | 18:1n7 (PL, mean): 3.9 percentage of total fatty acids within each lipid class | 18:1n9 (PL, mean): 7.4 percentage of total fatty acids within each lipid class | Saturates (PL, mean): 43.9 percentage of total fatty acids within each lipid class | Total (PL, mean): 100.0 percentage of total fatty acids within each lipid class | Total n7 (PL, mean): 4.8 percentage of total fatty acids within each lipid class | Total n9 (PL, mean): 8.7 percentage of total fatty acids within each lipid class | 14:0 (PL, mean of treated mice): 7.7 nanomoles per gram | 16:0 (PL, mean of treated mice): 1533.6 nanomoles per gram | 16:1n7 (PL, mean of treated mice): 43.0 nanomoles per gram | 18:0 (PL, mean of treated mice): 604.7 nanomoles per gram | 18:1n7 (PL, mean of treated mice): 195.0 nanomoles per gram | 18:1n9 (PL, mean of treated mice): 384.8 nanomoles per gram | Saturates (PL, mean of treated mice): 2191.4 nanomoles per gram | Total n7 (PL, mean of treated mice): 238.0 nanomoles per gram | Total n9 (PL, mean of treated mice): 449.9 nanomoles per gram | Total nMole of (PL, mean of treated mice): 2496.5 nanomoles per gram | 14:0 (TAG, mean): 1.2 percentage of total fatty acids within each lipid class | 16:0 (TAG, mean): 21.9 percentage of total fatty acids within each lipid class | 16:1n7 (TAG, mean): 7.0 percentage of total fatty acids within each lipid class | 18:0 (TAG, mean): 1.8 percentage of total fatty acids within each lipid class | 18:1n7 (TAG, mean): 4.5 percentage of total fatty acids within each lipid class | 18:1n9 (TAG, mean): 27.2 percentage of total fatty acids within each lipid class | Saturates (TAG, mean): 25.8 percentage of total fatty acids within each lipid class | Total (TAG, mean): 100.0 percentage of total fatty acids within each lipid class | Total n9 (TAG, mean): 27.9 percentage of total fatty acids within each lipid class | 14:0 (TAG, mean of treated mice): 17.1 nanomoles per gram | 16:0 (TAG, mean of treated mice): 315.8 nanomoles per gram | 16:1n7 (TAG, mean of treated mice): 102.5 nanomoles per gram | 18:0 (TAG, mean of treated mice): 24.9 nanomoles per gram | 18:1n7 (TAG, mean of treated mice): 66.1 nanomoles per gram | 18:1n9 (TAG, mean of treated mice): 398.8 nanomoles per gram | Saturates (TAG, mean of treated mice): 368.7 nanomoles per gram | Total n7 (TAG, mean of treated mice): 168.5 nanomoles per gram | Total n9 (TAG, mean of treated mice): 410.2 nanomoles per gram | Total nMole of (TAG, mean of treated mice): 484.3 nanomoles per gram
